According to US10660338B2, “Sporocidal disinfectant or sanitising composition” (priority 2014, dated 2020):

What was measured:
[1] = Dye duration (lifetime before bleaching); assay type: physicochemical
Description: and wherein the colour indicator comprises a first non-mordant dye having a first colour and being bleachable after a first dye lifetime of 0.5 to 10 minutes in a test solution at 20° C. to 40° C. and pH8.0 to 8.5 containing 0.05 wt % to 0.15 wt % of the dye and 45 wt % to 55 wt % of sodium percarbonate;
a second non-mordant dye having a second colour different from the first colour and bleachable after a second dye lifetime of not less than 24 hours in the test solution; and
an optional third non-mordant dye having a third colour different from the first and second colours and bleachable after a third dye lifetime of not less than 36 hours in the test solution.

[2] = tested on: spores; assay: Sporocidal action of peracetic acid (general statements); assay type: cell-based
[3] = tested on: spores; settings: background statement; cited from earlier work

Compound | DURATION [1] [min] | Concentration sufficient to provide sporicidal action [2] | Concentration at which sporocidal [3] [ppm]
O=S(=O)(O)c1cc(S(=O)(=O)O)c2c(/N=N\c3ccc(S(=O)(=O)O)c4ccccc34)c(O)ccc2c1 [Acid Red 18] | 30 |  | 
Cc1ccc(Nc2ccc(O)c3c2C(=O)c2ccccc2C3=O)c(S(=O)(=O)[O-])c1.[Na+] [Acid Violet 43] | 5 |  | 
CC(=O)OO [Peracetic acid] |  | approximately 1000 ppm | 4000
